In ChEMBL document CHEMBL1201862, “PubChem BioAssay data set” (2004):
Calls of active or inactive are those of the source.

Columns and labels:
ORF 73 = target: T1, ORF 73 (Human herpesvirus 8, UniProt O40947); assay: inhibitors of C-LANA binding to LBS DNA, dose response, biochemical, fluorescence polarization, cherry-picked samples (AID 504725); set-up: species or system Human gammaherpesvirus 8;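 note: fluorescence polarization of a labeled DNA duplex reporting LANA DNA binding; potency is for inhibitors that block LANA binding to the DNA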
T1 sequence (O40947 whole entry): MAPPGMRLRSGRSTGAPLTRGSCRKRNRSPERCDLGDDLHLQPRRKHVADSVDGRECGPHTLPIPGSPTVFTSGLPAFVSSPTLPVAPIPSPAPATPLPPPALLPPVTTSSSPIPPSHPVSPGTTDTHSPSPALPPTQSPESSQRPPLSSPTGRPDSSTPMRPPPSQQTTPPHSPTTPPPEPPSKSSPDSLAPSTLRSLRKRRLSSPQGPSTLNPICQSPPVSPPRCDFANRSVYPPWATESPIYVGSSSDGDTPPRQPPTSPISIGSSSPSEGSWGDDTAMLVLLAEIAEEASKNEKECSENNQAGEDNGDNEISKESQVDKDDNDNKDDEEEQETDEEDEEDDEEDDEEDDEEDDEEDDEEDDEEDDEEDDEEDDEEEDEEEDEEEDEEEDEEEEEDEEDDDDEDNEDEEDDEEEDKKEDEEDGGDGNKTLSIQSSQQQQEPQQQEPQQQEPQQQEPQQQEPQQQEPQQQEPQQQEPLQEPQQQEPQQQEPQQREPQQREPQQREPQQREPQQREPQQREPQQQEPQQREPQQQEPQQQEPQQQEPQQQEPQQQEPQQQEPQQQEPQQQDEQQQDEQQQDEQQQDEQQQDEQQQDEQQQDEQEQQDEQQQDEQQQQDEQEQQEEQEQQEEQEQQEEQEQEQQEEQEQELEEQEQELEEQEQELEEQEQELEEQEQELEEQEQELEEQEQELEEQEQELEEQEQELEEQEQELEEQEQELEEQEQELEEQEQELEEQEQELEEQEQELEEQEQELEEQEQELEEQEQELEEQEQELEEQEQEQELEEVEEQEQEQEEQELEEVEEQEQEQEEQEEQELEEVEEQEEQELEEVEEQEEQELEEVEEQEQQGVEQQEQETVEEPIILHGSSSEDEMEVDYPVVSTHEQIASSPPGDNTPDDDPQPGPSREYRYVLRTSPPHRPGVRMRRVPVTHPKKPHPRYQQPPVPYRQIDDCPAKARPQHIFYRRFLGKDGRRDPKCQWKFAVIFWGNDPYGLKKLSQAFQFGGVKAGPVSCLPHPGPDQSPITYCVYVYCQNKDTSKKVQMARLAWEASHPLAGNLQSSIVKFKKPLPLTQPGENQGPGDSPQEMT

Bcl-2-related protein A1 = target: T2, Bcl-2-related protein A1 (Mus musculus, UniProt Q07440); type: functional;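 note: confirmatory dose–response counterscreen on Bfl-1, used to check hits from a UBC13 polyubiquitin inhibitor campaign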
T2 sequence (Q07440 whole entry): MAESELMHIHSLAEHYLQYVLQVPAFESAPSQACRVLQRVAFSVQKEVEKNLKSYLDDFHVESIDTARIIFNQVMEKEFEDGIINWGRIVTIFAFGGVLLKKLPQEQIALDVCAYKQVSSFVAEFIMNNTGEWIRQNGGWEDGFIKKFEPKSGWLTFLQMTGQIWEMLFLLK

[1] = target: T3, Ubiquitin-conjugating enzyme E2 N (Homo sapiens, UniProt P61088); type: functional
T3 sequence (P61088 whole entry): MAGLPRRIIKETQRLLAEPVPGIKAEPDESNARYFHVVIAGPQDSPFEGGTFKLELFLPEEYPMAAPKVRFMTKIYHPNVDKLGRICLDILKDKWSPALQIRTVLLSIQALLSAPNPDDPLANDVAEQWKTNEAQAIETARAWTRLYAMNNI

[2] = target: T3, Ubiquitin-conjugating enzyme E2 N; type: functional; remark: listed apart in the source
[3] = target: T4, Short transient receptor potential channel 4 (Mus musculus, UniProt Q9QUQ5); assay: mouse TRPC4 channel activators, dose response, cell-based, HEK293 TRPC4/mu-opioid, Fluo-4 calcium (AID 434937); type: functional
T4 sequence (Q9QUQ5 whole entry): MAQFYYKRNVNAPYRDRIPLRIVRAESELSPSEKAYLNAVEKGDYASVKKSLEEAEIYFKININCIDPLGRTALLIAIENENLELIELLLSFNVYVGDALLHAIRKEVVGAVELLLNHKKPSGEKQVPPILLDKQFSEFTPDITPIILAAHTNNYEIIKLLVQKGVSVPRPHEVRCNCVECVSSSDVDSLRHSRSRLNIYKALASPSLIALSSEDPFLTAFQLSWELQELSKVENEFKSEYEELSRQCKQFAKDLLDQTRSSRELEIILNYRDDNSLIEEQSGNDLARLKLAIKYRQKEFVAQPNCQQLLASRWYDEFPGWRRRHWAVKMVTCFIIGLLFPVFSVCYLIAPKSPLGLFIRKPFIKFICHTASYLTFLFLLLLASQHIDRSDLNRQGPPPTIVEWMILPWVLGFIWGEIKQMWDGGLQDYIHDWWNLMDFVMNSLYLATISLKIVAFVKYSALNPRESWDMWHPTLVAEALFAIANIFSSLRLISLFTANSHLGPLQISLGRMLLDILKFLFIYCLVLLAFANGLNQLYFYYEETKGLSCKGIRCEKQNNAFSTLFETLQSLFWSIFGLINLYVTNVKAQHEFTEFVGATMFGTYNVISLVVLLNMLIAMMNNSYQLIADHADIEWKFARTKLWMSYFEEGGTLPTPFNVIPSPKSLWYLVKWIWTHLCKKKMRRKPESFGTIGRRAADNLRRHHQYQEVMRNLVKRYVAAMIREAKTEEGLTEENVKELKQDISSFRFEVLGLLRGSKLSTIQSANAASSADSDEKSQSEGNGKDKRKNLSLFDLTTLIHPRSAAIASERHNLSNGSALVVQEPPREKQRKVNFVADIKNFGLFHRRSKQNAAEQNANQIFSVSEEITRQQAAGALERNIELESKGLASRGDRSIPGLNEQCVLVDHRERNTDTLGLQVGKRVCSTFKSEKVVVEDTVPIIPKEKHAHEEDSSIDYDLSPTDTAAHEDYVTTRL

[4] = target: 5-hydroxytryptamine receptor 5A (Homo sapiens, UniProt P47898); assay: Counterscreen for agonists of OPRM1-OPRD1 heterodimerization: luminescence-based cell-based high throughput dose response assay to identify agonists of 5-hydroxytryptamine (serotonin) 5A receptor (HTR5A). [Related pubchem assays (depositor defined):AID504326, AID504355, AID504692, AID504904, AID504905]; type: functional
Chain of 5-hydroxytryptamine receptor 5A (P47898 whole entry): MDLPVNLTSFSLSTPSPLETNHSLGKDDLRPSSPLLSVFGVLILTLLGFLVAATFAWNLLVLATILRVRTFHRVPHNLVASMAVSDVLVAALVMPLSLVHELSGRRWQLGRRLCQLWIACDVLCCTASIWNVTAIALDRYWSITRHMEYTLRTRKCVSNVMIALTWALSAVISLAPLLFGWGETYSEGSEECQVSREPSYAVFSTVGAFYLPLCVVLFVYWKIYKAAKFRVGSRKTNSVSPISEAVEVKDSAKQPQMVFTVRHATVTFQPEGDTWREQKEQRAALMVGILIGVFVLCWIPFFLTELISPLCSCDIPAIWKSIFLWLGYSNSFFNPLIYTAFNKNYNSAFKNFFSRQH

Mu-type opioid receptor = Mu-type opioid receptor (Homo sapiens, UniProt P35372); assay: (§1) Counterscreen for agonists of heterodimerization of the mu 1 (OPRM1) and delta 1 (OPRD1) opioid receptors: Luminescence-based cell-based high throughput dose response assay to identify agonists of OPRM1 homodimerization.; type: functional
Chain of Mu-type opioid receptor (P35372 whole entry): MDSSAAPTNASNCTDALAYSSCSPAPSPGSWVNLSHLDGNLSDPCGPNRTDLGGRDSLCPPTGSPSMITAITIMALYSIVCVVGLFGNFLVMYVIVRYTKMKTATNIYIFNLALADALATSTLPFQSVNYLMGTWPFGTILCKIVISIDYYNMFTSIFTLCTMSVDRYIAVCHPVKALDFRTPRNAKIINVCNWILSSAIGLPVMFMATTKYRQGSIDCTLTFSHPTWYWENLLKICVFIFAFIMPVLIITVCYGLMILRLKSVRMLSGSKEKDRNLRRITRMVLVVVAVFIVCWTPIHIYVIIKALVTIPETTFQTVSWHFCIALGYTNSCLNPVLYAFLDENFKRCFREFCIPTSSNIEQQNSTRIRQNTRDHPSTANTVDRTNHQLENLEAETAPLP

[5] = target: Delta-type opioid receptor (Homo sapiens, UniProt P41143); assay: as §1, with “of OPRD1” for “of OPRM1”, “homodimerization. [Related pubchem assays (depositor defined):AID504326, AID504355, AID504692, AID504904, AID504905]” for “homodimerization.”; type: functional
Chain of Delta-type opioid receptor (P41143 whole entry): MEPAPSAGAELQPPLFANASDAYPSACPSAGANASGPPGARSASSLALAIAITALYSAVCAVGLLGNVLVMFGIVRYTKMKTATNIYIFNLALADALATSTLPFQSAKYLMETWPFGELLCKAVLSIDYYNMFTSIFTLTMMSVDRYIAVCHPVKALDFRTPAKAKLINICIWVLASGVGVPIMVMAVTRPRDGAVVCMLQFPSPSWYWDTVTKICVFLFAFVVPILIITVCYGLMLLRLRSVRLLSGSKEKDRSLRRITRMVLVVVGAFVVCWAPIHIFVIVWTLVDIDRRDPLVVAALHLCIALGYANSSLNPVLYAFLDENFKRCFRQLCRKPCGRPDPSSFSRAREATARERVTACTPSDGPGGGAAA

SMILES | AC50 (ORF 73) | IC50 (Bcl-2-related protein A1) | IC50 [1] | IC50 [2] | EC50 [3] | EC50 [4] | EC50 (Mu-type opioid receptor) | EC50 [5]
Cc1cc(O)c2c(n1)c(C)cc1[nH]c(C)c(C)c12 | 42.3 µM (active) |  |  |  |  |  |  | 
C#CCOCCOCCOCCNc1nc(N2CCN(C(=O)[C@H](CCCCN)n3cc(CN)nn3)CC2)nc(N2CCN(C(=O)[C@H](CCCCN)n3cc([C@@H](N)[C@H](C)CC)nn3)CC2)n1 |  | > 20 µM (inactive) | 4.49 µM (active) | 3.13 µM (active) |  |  |  | 
CCC(=O)C(CCN1CCOCC1)(c1ccccc1)c1ccccc1 |  |  |  |  | 0.376 µM (active) | > 92.5 µM (inactive) | 12 µM (inactive) | > 92.5 µM (inactive)
CCOC(=O)C1(Cc2ccccc2)CCN(Cc2cccn2-c2cccnc2)CC1 |  |  |  |  | 0.841 µM (active) | > 92.5 µM (inactive) | > 92.5 µM (inactive) | > 92.5 µM (inactive)
Cc1nc(N)sc1C(=O)N/N=C/c1cccnc1 |  | > 20 µM (inactive) | 1.68 µM (active) | 1.89 µM (active) |  |  |  | 
